Format in all cases: biochemical
Assay [1] deals with T1, human plasma type α1,3FucT (Homo sapiens, UniProt Q11128).
T1 sequence (Q11128 1-374): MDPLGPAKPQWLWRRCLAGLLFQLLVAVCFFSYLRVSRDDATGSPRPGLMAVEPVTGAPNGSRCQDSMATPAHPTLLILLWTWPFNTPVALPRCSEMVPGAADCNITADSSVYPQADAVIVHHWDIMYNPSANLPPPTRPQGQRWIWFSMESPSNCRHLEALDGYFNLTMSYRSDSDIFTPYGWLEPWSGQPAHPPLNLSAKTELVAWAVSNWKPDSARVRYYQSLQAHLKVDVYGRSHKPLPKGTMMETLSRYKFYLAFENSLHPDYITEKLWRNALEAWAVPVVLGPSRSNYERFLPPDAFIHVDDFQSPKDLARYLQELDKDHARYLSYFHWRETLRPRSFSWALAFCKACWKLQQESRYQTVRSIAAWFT
As to the kind of experiment: Substrate specificity and inhibition study of α1,3FucT (GDP-14C-Fuc transfer assay). Particulars: 0.1 mM GDP-Fuc. How it is done:
The assay procedure was essentially the same as described previously [Fukowska-Latallo et al, Gene & Development, 4:1288 (1990)] with some modifications. A stock mixture containing 0.25 mM GDP-^14C-Fuc (5000 cpm/mL), 6.25 mM ATP, 25 mM MnCl2 and 62.5 mM sodium cacodylate buffer, pH 6.2 was mixed freshly and kept on ice. […] The incubation was carried out at 37° C. for 30 to 240 minutes depending upon the acceptor under study. Separate assays in the absence of acceptor were used to correct for background hydrolysis of GDP-Fuc. Upon completion of incubation, 400 μL of a 25 percent (v/v) suspension of QAE-Sephadex was added. […] From the supernatant fluid, 200 μL were extracted and mixed with 10 mL of scintillation cocktail. The radioactivity was counted on a scintillation counter. […] This assay can be run in the absence of ATP.

The next assay deals with T2, α2,3SiaT (Rattus norvegicus, UniProt Q02734).
T2 construct: fusion protein between the pre-insulin signal peptide and the catalytic domain of the sialyltransferase; pre-insulin signal peptide (N); made in house; host or cells: Sf-9 insect cells (baculovirus rBv2,3ST), secreted into the medium
T2 sequence (Q02734 48-374 limits assumed): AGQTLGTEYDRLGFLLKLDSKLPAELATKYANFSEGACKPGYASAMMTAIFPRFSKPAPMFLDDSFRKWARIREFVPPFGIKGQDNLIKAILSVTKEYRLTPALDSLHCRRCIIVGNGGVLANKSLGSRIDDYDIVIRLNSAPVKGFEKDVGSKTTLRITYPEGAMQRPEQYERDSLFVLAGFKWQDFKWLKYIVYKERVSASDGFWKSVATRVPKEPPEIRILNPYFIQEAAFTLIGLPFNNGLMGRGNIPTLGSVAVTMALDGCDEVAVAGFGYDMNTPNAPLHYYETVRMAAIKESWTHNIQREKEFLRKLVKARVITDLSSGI
The assay is described as follows: Enzymatic sialylation with α2,3sialyltransferase. An excerpt:
Sialylation A multienzyme system for sialylation starts with NeuAc, [Gal-1-^13C]-LacNAcβOallyl, PEP, and catalytic amounts of ATP and CMP, as is shown in Scheme 16, below. CMP was converted to CDP by nucleoside monophosphate kinase (EC 2.7.4.4, NMK) in the presence of ATP, which was regenerated from its byproduct ADP catalyzed by PK in the presence of PEP, then to CTP with PEP by PK. The CTP was then reacted with NeuAc with CMP-NeuAc synthetase (EC 2.7.7.43) to produce CMP-NeuAc. The byproduct, PPi was hydrolyzed to Pi by PPase. Sialylation of LacNAcβOallyl was accomplished with CMP-NeuAc and α2,3sialyltransferase (α2,3SiaT; EC 2.4.99.6). The released CMP was again converted to CDP, CTP, and finally to CMP-NeuAc. Using this system, [Gal-1-^13C]NeuAcα2,3Galβ1,4GlcNAcβOallyl (Compound 42) as well as the unlabelled trisaccharide were prepared.
A solution of Compound 1-^13C-41 (210 mg, […]), NeuAc (160 mg, […]), PEP Na3 salt (120 mg, 0.51 mmol), MgCl2.6H2O (20 mg, 0.10 mmol), MnCl2.4H2O (4.9 mg, 0.025 mmol), KCl (7.5 mg, 0.10 mmol), CMP (16 mg, 0.05 mmol), ATP (2.7 mg, […]) and mercaptoethanol (0.34 mL) in HEPES buffer (200 mM, pH 7.5; 3.5 mL) was adjusted with N NaOH to pH 7.5 and the enzymes, NMK (5 U), PK (100 U), PPase (10 U), CMP-NeuAc synthetase (0.4 U) and α2,3SiaT (0.1 U) were added to the solution. […]

A further assay deals with T3, GalT (Bos taurus, UniProt P08037).
T3 construct: purchased Sigma
T3 sequence (P08037 79-402 limits assumed): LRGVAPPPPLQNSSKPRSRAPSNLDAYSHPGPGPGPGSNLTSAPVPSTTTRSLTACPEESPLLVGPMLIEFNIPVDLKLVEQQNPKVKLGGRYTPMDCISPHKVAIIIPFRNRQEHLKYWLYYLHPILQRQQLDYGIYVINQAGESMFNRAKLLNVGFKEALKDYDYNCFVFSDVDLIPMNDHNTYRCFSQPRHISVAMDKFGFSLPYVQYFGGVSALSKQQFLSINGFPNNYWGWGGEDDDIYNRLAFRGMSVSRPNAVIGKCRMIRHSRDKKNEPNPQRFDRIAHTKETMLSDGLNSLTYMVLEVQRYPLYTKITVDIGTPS
As to the kind of experiment: Kinetic study of GalT (rate of LacNAc formation, UDP-14C-Gal). Conditions: 100 mM cacodylate pH 7.5, 9.3 mM Mn2+, 0.1 mM UDP-Gal, 20° C. The procedure:
Initial velocities of the enzyme reaction were determined by measuring the rate of LacNAc formation with a slight modification of the assay by Pierce et al. [Pierce et al., Anal. Biochem., 102:441 (1980)]. All the reactions were carried out in 100 mM cacodylate buffer (pH 7.5) with fixed concentrations of Mn^2+ (9.3 mm) and UDP-Gal (0.1 mM; 58.5 cpm/pmol of UDP-^14C-Gal) in […] of solution. The reaction was initiated by the addition of GalT (0.05 U, […]; from Sigma) and permitted to stand at 20° C. for 30 minutes. Nonspecific hydrolysis of UDP-Gal was measured by the control reaction in the absence of GalT. The reaction was stopped by passing through a column of QAE-Sephadex ([…]), and eluted by gentle air pressure to remove the unreacted UDP-Gal. The reaction vial was rinsed twice with […] of water each and passed through the resin column. The filtrates were collected and directly transferred into a scintillation vial. The scintillation fluid was added to the vial, and then radioactivity was counted by a liquid scintillation counter. […] Res., 159:315 (1987)] and Ki (0.46±0.06 mM) for UDP. Similarly, IC50 value of UDP for GalT was determined using different concentration of UDP.

Each structure is given as a SMILES string.

The term IC50 denotes the concentration needed to halve the response being measured. As a reminder, the Ki is the dissociation constant of the complex between target and ligand, obtained from inhibition or displacement.

For the molecule `OC[C@H]1O[C@@H](O[C@H]2[C@H](O)C=CO[C@@H]2CO)[C@H](O)[C@@H](O)[C@H]1O` [Galβ1,4Glucal], in assay [1] (10 mM Mn2+ and 10 mM LacNAc at pH 6.2 and 37° C.), the IC50 was above 50000 µM. Further, the “Vrel (relative maximal velocities)” value in assay [1] (10 mM MnCl2 and 10 mM Galβ1,4GlcNAc, Galβ1,4GlcNAc = 100) was determined as 10. The “substrate for α2,3SiaT (in words)” value at α2,3SiaT was “good substrate”.
For the molecule `O=c1ccn([C@@H]2O[C@H](COP(=O)(O)OP(=O)(O)O)[C@@H](O)[C@H]2O)c(=O)[nH]1` [UDP, uridine 5′-diphosphate], on GalT, the Ki turned out to be 460 µM.
